This is an account of results in US9562035B2, “Benzamide derivative useful as FASN inhibitors for the treatment of cancer” (Janssen Pharmaceutica NV, priority 2013, dated 2017).

pEC50, pIC50: −log10 of the molar value.

A short description of data set [1]: Cytotoxicity in HepG2 cells (Resazurin assay). The format is cell-based. The note with it: human, read-out: CC50 (Toxicity HepG2-4d). As to the method:
The anti-HBV activity was measured using the HepG2.117 cell line, a stable, inducibly HBV producing cell line (SUN D., et al., “Stable HepG2- and Huh7-based human hepatoma cell lines for efficient regulated expression of infectious hepatitis B virus”, J. of Hepatology, 2006, pp 636-645, Vol. 45) which replicates HBV in the absence of doxycycline (Tet-off system). For the antiviral assay, HBV replication was induced, followed by a treatment with serially diluted compound in 96-well plates in duplicate. After 3 days of treatment, the antiviral activity was determined by quantification of intracellular or extracellular HBV DNA using realtime PCR and an HBV specific primer set and probe. Cytotoxicity of the test compounds was tested using HepG2 cells, incubated for 4 days in the presence of test compounds. The viability of the cells was assessed using a Resazurin assay. The CC50 was defined as the 50% concentration for cytotoxicity

A short description of data set [2]: Toxicity Huh7-ATP (cytotoxicity alongside the HCV replicon assay). The settings on record: human, Huh7 cells.
In data set [3] the test system is rgRSV224 virus. The data set can be described thus: Antiviral Activity Against RSV (GFP expression in HeLa cells). The format is cell-based. The settings on record: human respiratory syncytial virus, 72 h, read-out: EC50 (RSV Antiviral Activity). As to the method: (§1) Black 96-well clear-bottom microtiter plates (Corning, Amsterdam, The Netherlands) were filled in duplicate using a customized robot system with serial 4-fold dilutions of test compound in a final volume of 50 μl culture medium [RPMI medium without phenol red, 10% FBS, 0.04% gentamycin (50 mg/mL) and 0.5% DMSO]. Then, 100 μl of a HeLa cell suspension (5×10^4 cells/mL) in culture medium was added to each well followed by the addition of 50 μl rgRSV224 (MOI=0.02) virus in culture medium using a multidrop dispenser (Thermo Scientific, Erembodegem, Belgium). rgRSV224 virus is an engineered virus that includes an additional GFP gene (HALLAK, L. K., et. al., “Glycosaminoglycan sulfation requirements for respiratory syncytial virus infection.” J. Virol., 2000, pp 10508-10513, Vol. […]). Medium, virus- and mock-infected controls were included in each test. Cells were incubated at 37° C. in a 5% CO2 atmosphere. Three days post-virus exposure, viral replication was quantified by measuring GFP expression in the cells by a MSM laser microscope (Tibotec, Beerse, Belgium). […] In parallel, test compounds were incubated for three days in a set of white 96-well microtitier plates (Corning) and the cytotoxicity of compounds in HeLa cells was determined by measuring the ATP content of the cells using the ATPlite kit (PerkinElmer, Zaventem, Belgium) according to the manufacturer's instructions. […]

A short description of data set [4]: Cytotoxicity in HeLa cells (ATPlite). The format is cell-based. The settings on record: human, in parallel to RSV assay, read-out: CC50 (Toxicity HeLa Cells). The procedure: as §1
The target of data set [5] is T1, FASN Keto-reductase Domain (Homo sapiens, UniProt P49327).
T1 construct: 10 μL hFASN enzyme (full length, 300 ng, purified in house) and 360 μM NADPH; made in house
Kind of data set: Fatty Acid Synthase Keto-Reductase Domain (FASN KR) Inhibition. The settings on record: mean where tested more than once; read-out: FASN K-R Domain pIC50 (converted). The data set is classed as biochemical. The procedure, abridged:
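Full-length human FASN (300 ng) in 100 mM KH2PO4 pH 7.5 with 360 μM NADPH and 180 mM ethyl acetoacetate (stock); A340 decrease read over 20 min at room temperature.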

Data set [6] deals with T2, hFASN enzyme (full length) (Homo sapiens, UniProt P49327).
T2 construct: 10 μL hFASN enzyme (full length, 300 ng, purified in house); made in house
Kind of data set: Fatty Acid Synthase (FASN) Inhibition Scintillation Proximity Assay. The data set is classed as biochemical. The procedure, abridged: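 Purified full-length human FASN (300 ng) incubated 60 min at room temperature with NADPH, [3H]-acetyl-CoA and malonyl-CoA in 100 mM KH2PO4 pH 7.5, 1 mM DTT; compound at 30 μM to 0.01 μM. [3H]-palmitate captured by SPA imaging beads; IC50 from 4-parameter fit, reported as pIC50.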

T2 sequence (P49327 whole entry): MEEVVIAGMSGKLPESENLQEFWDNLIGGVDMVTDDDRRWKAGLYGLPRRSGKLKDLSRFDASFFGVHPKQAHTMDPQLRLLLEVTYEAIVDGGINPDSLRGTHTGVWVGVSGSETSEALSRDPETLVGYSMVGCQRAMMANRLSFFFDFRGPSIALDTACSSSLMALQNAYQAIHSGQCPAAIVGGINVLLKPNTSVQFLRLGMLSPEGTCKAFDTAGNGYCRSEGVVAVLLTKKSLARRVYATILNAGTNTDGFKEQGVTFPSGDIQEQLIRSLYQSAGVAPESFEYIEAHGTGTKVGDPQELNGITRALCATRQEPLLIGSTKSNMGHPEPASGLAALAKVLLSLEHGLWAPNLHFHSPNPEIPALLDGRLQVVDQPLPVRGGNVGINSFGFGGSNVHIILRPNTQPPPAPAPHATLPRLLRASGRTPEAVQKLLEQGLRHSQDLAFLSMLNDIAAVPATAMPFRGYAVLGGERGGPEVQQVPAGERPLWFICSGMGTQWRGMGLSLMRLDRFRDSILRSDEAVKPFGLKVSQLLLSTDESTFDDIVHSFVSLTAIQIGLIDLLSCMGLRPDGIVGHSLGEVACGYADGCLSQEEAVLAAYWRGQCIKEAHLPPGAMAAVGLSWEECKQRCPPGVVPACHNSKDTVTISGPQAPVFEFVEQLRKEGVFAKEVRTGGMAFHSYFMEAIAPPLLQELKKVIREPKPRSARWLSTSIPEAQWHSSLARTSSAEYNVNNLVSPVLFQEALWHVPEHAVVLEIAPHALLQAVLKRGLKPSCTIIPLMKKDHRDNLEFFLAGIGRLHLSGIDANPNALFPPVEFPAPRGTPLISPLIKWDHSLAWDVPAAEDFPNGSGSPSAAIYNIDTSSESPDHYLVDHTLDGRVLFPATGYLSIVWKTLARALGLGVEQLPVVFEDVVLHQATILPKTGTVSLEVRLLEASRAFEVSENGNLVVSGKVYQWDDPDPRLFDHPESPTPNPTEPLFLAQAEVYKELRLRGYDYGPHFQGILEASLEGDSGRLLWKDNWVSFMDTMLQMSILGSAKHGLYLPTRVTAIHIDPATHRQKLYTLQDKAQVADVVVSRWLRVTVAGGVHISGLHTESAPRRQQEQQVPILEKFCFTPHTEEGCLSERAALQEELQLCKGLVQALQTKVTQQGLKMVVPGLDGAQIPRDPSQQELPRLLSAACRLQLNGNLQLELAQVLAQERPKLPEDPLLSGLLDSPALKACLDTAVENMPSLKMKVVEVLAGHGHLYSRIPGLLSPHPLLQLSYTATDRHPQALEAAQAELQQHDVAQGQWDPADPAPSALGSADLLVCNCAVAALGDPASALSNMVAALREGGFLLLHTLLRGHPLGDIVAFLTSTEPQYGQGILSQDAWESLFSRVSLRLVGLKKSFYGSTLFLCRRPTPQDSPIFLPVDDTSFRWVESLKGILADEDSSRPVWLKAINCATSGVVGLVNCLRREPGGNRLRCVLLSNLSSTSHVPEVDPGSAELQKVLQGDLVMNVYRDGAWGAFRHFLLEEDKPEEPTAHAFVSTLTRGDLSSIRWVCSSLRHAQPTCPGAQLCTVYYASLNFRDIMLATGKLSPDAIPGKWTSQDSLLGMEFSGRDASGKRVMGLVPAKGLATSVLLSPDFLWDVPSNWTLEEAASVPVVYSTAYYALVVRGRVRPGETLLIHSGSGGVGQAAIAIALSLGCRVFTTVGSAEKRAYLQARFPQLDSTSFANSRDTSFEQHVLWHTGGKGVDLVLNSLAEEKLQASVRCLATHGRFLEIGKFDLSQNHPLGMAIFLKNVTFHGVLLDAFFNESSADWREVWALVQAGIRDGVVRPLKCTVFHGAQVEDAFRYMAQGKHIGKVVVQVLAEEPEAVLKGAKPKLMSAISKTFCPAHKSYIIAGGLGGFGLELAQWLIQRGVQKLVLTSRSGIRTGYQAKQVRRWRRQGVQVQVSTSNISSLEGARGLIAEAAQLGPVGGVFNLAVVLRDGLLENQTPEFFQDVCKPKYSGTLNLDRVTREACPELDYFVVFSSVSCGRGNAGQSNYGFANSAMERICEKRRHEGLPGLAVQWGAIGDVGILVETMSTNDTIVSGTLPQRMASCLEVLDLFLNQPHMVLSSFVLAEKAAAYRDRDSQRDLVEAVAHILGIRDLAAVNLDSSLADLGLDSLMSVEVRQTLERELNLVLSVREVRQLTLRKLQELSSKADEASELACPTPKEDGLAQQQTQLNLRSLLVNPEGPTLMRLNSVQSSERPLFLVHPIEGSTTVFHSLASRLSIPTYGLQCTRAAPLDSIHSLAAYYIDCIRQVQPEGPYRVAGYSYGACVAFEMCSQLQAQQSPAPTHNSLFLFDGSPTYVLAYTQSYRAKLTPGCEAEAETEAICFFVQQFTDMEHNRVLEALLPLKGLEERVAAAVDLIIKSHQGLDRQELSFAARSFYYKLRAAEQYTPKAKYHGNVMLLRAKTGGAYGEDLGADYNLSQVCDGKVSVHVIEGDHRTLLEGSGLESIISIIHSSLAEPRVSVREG
T1 sequence (P49327 whole entry, the tested form may be a part): as the sequence (P49327 whole entry) above

As to `Cc1ccc(C(=O)N2CCC(c3ccc(-c4cnn(C)c4)cc3)CC2)cc1NC(=O)c1ccc(NC(C)C)nc1` [Compound #32, 6-(isopropylamino)-N-(2-methyl-5-(4-(4-(1-methyl-1H-pyrazol-4-yl)phenyl)piperidine-1-carbonyl)phenyl)nicotinamide], the CC50 at 4 days in data set [1] was greater than 25000 nM. The CC50 in data set [2] is greater than 25000 nM. Besides, the negative logarithm of the EC50 (pEC50) in data set [3] was 7.75. Further, the CC50 at 3 days in data set [4] was greater than 25000 nM. For the same compound, the IC50 in data set [5] was 37.2 nM. This compound also showed a negative logarithm of the IC50 (pIC50) in data set [6] (mean where tested more than once, ~ = standard error of pIC50 larger than 0.5) of 7.57. The inhibition at 10 µM in data set [6] (read-out: FASN % Effect @1E−05M) stood at 104%.
